Measured values published in patent publication US12691101B2, “Compound and method for preventing or treating of respiratory diseases comprising the same as an active ingredient” (YONSEI UNIVERSITY, UNIVERSITY - INDUSTRY FOUNDATION (UIF), priority 2019, dated 2026).
pIC50: −log10 of the molar value.

Key:
AN01 = experiment: Protein expression measurement in IL-4-treated HNE cells, AN01; assay type: cell-based, human; settings: long-term treatment
Experimental: CHO-K1 and HNE cells were lysed with a cytolytic buffer (50 mM Tris-HCl, pH 7.4, 1% Nonidet P-40, 0.25% sodium deoxycholate, 150 mM NaCl, 1 mM EDTA, 1 mM Na3VO4, and protease inhibiting mixture). The total cell lysates were under centrifugation at 15,000×g for 10 minutes at 4° C. to remove cellular debris and the same amount (50 μg protein or 5 μg protein/lane) of supernatant protein was isolated on 4-12% Tris-glycine precast gel (KOMA BIOTECH, Seoul, Korea) and transferred to PVDF membrane (Millipore, Billerica, MA, USA). The membrane was blocked with 5% fat-free skim milk in TBS containing 0.1% Tween 20 (TBST) or 5% bovine serum albumin in TBS at a room temperature for 1 hour. Then, the membrane was cultured at 4° C. overnight with a primary antibody against pendrin (sc-50346; Santa Cruz Biotechnology, Santa Cruz, CA, USA), NF-κB p65 (4764S; Cell Signaling Technology, Danvers, MA, USA), p-NF-κB p65 (3033S; Cell Signaling Technology), IkBα (9242S; Cell Signaling Technology), p-IkBα (9141S; Cell Signaling Technology), β-actin (sc-47778; Santa Cruz Biotechnology), or AN01 (ab64085; Abeam). After washing with 0.05% Tween 20 (TBST) in PBS, the blot was additionally cultured with a secondary antibody (Cell Signaling Technology, Danvers, MA) at a room temperature for 60 minutes. […]

Duox1 and Duox2 mRNA = experiment: Real-time PCR of Duox1 and Duox2 mRNA in IL-4-treated HNE cells; assay type: cell-based, human
Experimental: The total messenger RNA (mRNA) was extracted using TRIzol reagent (Invitrogen, Carlsbad, CA, USA), and was reverse-transcribed using a random hexamer primer, an oligo(dT) primer and SuperScript® III reverse transcriptase (Invitrogen). Quantitative real-time PCR was performed using StepOnePlus Real-Time PCR system (Applied Biosystems, Foster City, CA, USA) and Thunderbird SYBR qPCR mix (Tokyobo, Osaka, Japan). Thermal cycling conditions included the initial stage at 95° C. for 5 minutes, and subsequent 40 cycles at 95° C. for 10 seconds, at 55° C. for 20 seconds and at 72° C. for […].

[1] = test system: AN01, CFTR and ENaC ion channel activity; experiment: Short circuit current in HNE cells; assay type: cell-based, human; settings: long-term treatment (48 hours)
Experimental: (A) Representative tracing of intracellular pH of treated (grey line) and IL-4 (10 ng/ml) treated HNE cells. Pendrin was inhibited by F56 ([…]). (B) The mRNA expression level of pendrin was determined at the indicated time after treatment of F56 ([…]) by real-time quantitative PCR in IL-4-treated HBE cells (mean±S.E., n=3). (C) The Cl^−/HCO3^− exchange activity was measured in IL-4-treated HBE cells. F56 was pretreated for 5 minutes. (D, E) Short circuit current record of HNE cells. Representative tracing showing the effect of F56 on the ENaC, CFTR and CaCC channel activity. After exposing to F56 ([…]) for 48 hours, in presence or absence of IL-4, the channel activity was measured. Amiloride (100 μM), forskolin (20 μM, CFTRinh-172 (10 μM) and ATP (100 μM) were added to the apical bath. (F) The AN01, CFTR and ENaC mRNA expression level was determined at the indicated time after treatment of F56 ([…]) by real-time quantitative PCR in IL-4-treated HNE cells (mean±S.E., n=5) * P<0.05, ** P<0.01, *** P<0.001.
Snapwell inserts containing the primary culture of AN01- and CFTR-expressing FRT and human nasal cavity epithelium (HNE) cells were equipped on Ussing chamber (Physiologic Instruments, San Diego, CA, USA). […] Using Labchart Pro 7 (AD Instruments), data were recorded and analyzed. […]

SLC26A3 = target: T1, SLC26A3 (Homo sapiens, UniProt P40879); experiment: Cl^−/HCO3^− exchange in CHO-K1 cells expressing SLC26A3; assay type: cell-based; settings: weakly inhibited
T1 construct: expressed in transfected cells; host or cells: CHO-K1
Experimental: (A) The inhibition of mouse pendrin (mPDS)-mediated Cl^−/I^− exchange activity by F56 was measured in CHO-K1 cells (mean±S.E., n=5). The indicated concentration of F56 was pretreated for 10 minutes. (B) Summary of dose-response for inhibition of the human pendrin (hPDS)-mediated (closed circle, FIG. (a), C) and mPDS-mediated (open circle) Cl^−/I^− exchange activity. (C-F) Representative traces of intracellular pH in CHO-K1 cells expressing SLC26A3, SLC26A6, SLC26A7 and SLC26A9 were shown. The application of Cl^− free solution induced intracellular alkalization by Cl^−/HCO3^− exchange. The indicated concentration of F56 was pretreated for 10 minutes. (G) the effect of F56 (100 μM) on the CFTR chloride channel activity was measured in FRT cells expressing human CFTR. The CFTR current was activated by 20 μM forskolin and was inhibited by 10 μM CFTRinh-172. (H) The effect of F56 (100 μM) on the AN01 chloride channel activity was measured in FRT cells expressing human AN01. Before 10 minutes prior to AN01 activation by 100 μM ATP, F56 was added. (Right) Peak current summary (mean±S.E., n=3). (I) The effect of F56 on the hERG (Kv11.1) potassium channel activity was measured in HEK293T cells expressing human Kv11.1 (mean±S.E., n=4). […] (J) The effect of F56 on the 5-HT2A channel activity was measured in FRT cells expressing human 5-HT2A (mean±S.E., n=4). […]

T1 sequence (P40879 whole entry, species assumed): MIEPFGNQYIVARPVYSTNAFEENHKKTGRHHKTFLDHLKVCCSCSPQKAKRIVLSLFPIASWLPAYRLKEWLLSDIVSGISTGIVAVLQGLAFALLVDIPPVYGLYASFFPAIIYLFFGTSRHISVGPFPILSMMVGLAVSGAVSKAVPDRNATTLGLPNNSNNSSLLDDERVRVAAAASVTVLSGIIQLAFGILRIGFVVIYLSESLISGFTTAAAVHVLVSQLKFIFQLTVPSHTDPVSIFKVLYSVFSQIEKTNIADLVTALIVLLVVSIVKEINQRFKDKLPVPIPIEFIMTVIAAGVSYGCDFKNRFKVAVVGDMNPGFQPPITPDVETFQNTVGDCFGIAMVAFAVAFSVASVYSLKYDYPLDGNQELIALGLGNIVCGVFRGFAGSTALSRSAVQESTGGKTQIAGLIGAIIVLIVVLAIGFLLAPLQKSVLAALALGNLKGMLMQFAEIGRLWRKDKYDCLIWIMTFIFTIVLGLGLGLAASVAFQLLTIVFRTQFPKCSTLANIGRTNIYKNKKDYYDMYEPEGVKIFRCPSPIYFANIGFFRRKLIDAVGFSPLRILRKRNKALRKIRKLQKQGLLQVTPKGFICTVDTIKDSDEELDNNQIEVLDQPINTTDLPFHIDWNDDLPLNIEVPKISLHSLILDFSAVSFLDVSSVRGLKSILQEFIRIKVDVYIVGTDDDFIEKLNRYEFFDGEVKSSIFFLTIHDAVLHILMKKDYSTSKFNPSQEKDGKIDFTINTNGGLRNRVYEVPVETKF

CC(C)(C)c1ccc(C2=NC(=Cc3cccs3)C(=O)O2)cc1 [F56, 2-(4-(tert-butyl)phenyl)-4-(thiophen-2-ylmethylene)oxazol-5(4H)-one]
IL-4-induced upregulation of AN01 (AN01): not affected | mRNA expression of Duox1 or Duox2 (Duox1 and Duox2 mRNA): did not affect | ion channel activity of AN01, CFTR and ENaC [1]: did not change | pIC50 (SLC26A3): < 4.00
